Where two headings read alike, the source gives them in different places.
Experiments:
[1] = test system: A/H1N1 virus A/PR/8/34 (PR8); experiment: microbe, parasite or virus in culture; assay type: cell-based; details: Influenza A virus, MDCK
[2] = test system: A/H1N1 virus A/Virginia/ATCC3/2009 (Virg09); experiment: microbe, parasite or virus in culture; assay type: cell-based, influenza A virus; details: for EC50: Influenza A virus, MDCK
MDCK cells = details: dog
in vitro = details: dog
[3] = read-out: Antiviral EC50 for PR8 virus
[4] = read-out: Antiviral EC50 for Virg09 virus
[5] = read-out: Antiviral EC50 against A/H1N1 virus, PR8 strain, MTS
[6] = read-out: Antiviral EC50 against A/H1N1 virus, PR8 strain, Microscopy
[7] = read-out: Antiviral EC50 against A/H1N1 virus, Virg09 strain, MTS
[8] = read-out: Antiviral EC50 against A/H1N1 virus, Virg09 strain, Microscopy

## Cc1cc(CNC(=O)c2cc(F)cc(F)c2)c(C)s1 [Compound 26, 3,5-Difluoro-N-[(2,5-dimethylthiophen-3-yl)methyl]benzamide]
[1]; [3]
  EC50: > 100 µM
[2]; [4]
  EC50: > 100 µM

## Cc1cc(CNC(=O)c2cc(Cl)cc(Cl)c2)c(C)s1 [Compound 27, 3,5-Dichloro-N-[(2,5-dimethylthiophen-3-yl)methyl]benzamide]
[1]; [3]
  EC50: > 100 µM
[2]; [4]
  EC50: > 100 µM

## Cc1cc(CNC(=O)c2cc(Br)cc(Br)c2)c(C)s1 [Compound 28, 3,5-Dibromo-N-[(2,5-dimethylthiophen-3-yl)methyl]benzamide]
[1]; [3]
  EC50: > 100 µM
[2]; [4]
  EC50: > 100 µM

## Cc1cc(CNC(=O)c2cccc(F)c2)c(C)s1 [Compound 30, N-[(2,5-Dimethylthiophen-3-yl)methyl]-3-fluorobenzamide]
[1]; [3]
  EC50: > 100 µM
[2]; [4]
  EC50: > 100 µM

## Cc1cc(CNC(=O)c2cccc(C(F)(F)F)c2)c(C)s1 [Compound 31, N-[(2,5-Dimethylthiophen-3-yl)methyl]-3-(trifluoromethyl)benzamide]
[1]; [3]
  EC50: > 100 µM
[2]; [4]
  EC50: > 100 µM

## Cc1cc(CNC(=O)c2cccc(Cl)c2)c(C)s1 [Compound 32, 3-Chloro-N-[(2,5-dimethylthiophen-3-yl)methyl]benzamide]
[1]; [3]
  EC50: > 100 µM
[2]; [4]
  EC50: > 100 µM

## Cc1cc(CNC(=O)c2cccc(Br)c2)c(C)s1 [Compound 33, 3-Bromo-N-[(2,5-dimethylthiophen-3-yl)methyl]benzamide]
[1]; [3]
  EC50: > 100 µM
[2]; [4]
  EC50: > 100 µM

## Cc1cc(CNC(=O)c2cccc([N+](=O)[O-])c2)c(C)s1 [Compound 34, N-[(2,5-Dimethylthiophen-3-yl)methyl]-3-nitrobenzamide]
[1]; [3]
  EC50: > 100 µM
[2]; [4]
  EC50: > 100 µM

## Cc1cc(CNC(=O)c2cc(F)c(F)c(C(F)(F)F)c2)c(C)s1 [Compound 35, N-((2,5-Dimethylthiophen-3-yl)methyl)-3,4-difluoro-5-(trifluoromethyl)benzamide]
[1]; [5]
  EC50: 0.22 ± 0.03 µM
[1]; [6]
  EC50: 0.86 ± 0.41 µM
[2]; [7]
  EC50: 0.2 ± 0.05 µM
[2]; [8]
  EC50: 0.89 ± 0.13 µM
MDCK cells
  Cytotoxicity MCC, Microscopy: >100 µM
In vitro
  CC50: > 100 µM

## Cc1cc(CNC(=O)c2ccccc2)c(C)s1 [Compound 40, N-((2,5-Dimethylthiophen-3-yl)methyl)benzamide]
[1]; [3]
  EC50: > 100 µM
[2]; [4]
  EC50: > 100 µM

## Cc1cc(CNC(=O)c2ccc(Cl)cc2)c(C)s1 [Compound 41, 4-Chloro-N-((2,5-dimethylthiophen-3-yl)methyl)benzamide]
[1]; [3]
  EC50: > 100 µM
[2]; [4]
  EC50: > 100 µM

## Cc1ccc(C(=O)NCc2cc(C)sc2C)cc1 [Compound 42, N-((2,5-Dimethylthiophen-3-yl)methyl)-4-methylbenzamide]
[1]; [3]
  EC50: > 100 µM
[2]; [4]
  EC50: > 100 µM

## COc1ccc(C(=O)NCc2cc(C)sc2C)cc1 [Compound 43, N-((2,5-Dimethylthiophen-3-yl)methyl)-4-methoxybenzamide]
[1]; [3]
  EC50: > 100 µM
[2]; [4]
  EC50: > 100 µM

## Cc1cc(CNC(=O)c2ccc(Cl)c(Cl)c2)c(C)s1 [Compound 44, 3,4-Dichloro-N-((2,5-dimethylthiophen-3-yl)methyl)benzamide]
[1]; [3]
  EC50: > 100 µM
[2]; [4]
  EC50: > 100 µM

## Cc1cc(CNC(=O)c2cc(F)cc(C(F)(F)F)c2)cs1 [Compound 45, 3-Fluoro-N-((5-methylthiophen-3-yl)methyl)-5-(trifluoromethyl)benzamide]
[1]; [5]
  EC50: 0.68 ± 0.51 µM
[1]; [6]
  EC50: 0.26 ± 0.02 µM
[2]; [7]
  EC50: 0.39 ± 0.18 µM
[2]; [8]
  EC50: 1.6 ± 0.5 µM
MDCK cells
  Cytotoxicity MCC, Microscopy: 78 ± 22 µM
In vitro
  CC50: 67 ± 1 µM

## Cc1sccc1CNC(=O)c1cc(F)cc(C(F)(F)F)c1 [Compound 46, 3-Fluoro-N-((2-methylthiophen-3-yl)methyl)-5-(trifluoromethyl)benzamide]
[1]; [5]
  EC50: 0.23 ± 0.08 µM
[1]; [6]
  EC50: 0.17 ± 0.04 µM
[2]
  ΔΔG (exp), change VF-57a → labelled compound: 1.8 kcal/mol
  ΔΔG (exp), change labelled compound → VF-57a: –1.8 kcal/mol
[2]; [7]
  EC50: 6.8 ± 6.5 µM
[2]; [8]
  EC50: 8.3 ± 5.1 µM
MDCK cells
  Cytotoxicity MCC, Microscopy: 67 ± 33 µM
In vitro
  CC50: > 100 µM

## O=C(NCc1ccsc1)c1cc(F)cc(C(F)(F)F)c1 [Compound 47, 3-Fluoro-N-(Thiophen-3-ylmethyl)-5-(trifluoromethyl)benzamide]
[1]; [5]
  EC50: 0.42 ± 0.1 µM
[1]; [6]
  EC50: 0.44 ± 0.16 µM
[2]
  ΔΔG (exp), change VF-57a → labelled compound: 1.9 kcal/mol
  ΔΔG (exp), change labelled compound → VF-57a: –1.9 kcal/mol
[2]; [7]
  EC50: 7.2 ± 4.1 µM
[2]; [8]
  EC50: 20 ± 8 µM
MDCK cells
  Cytotoxicity MCC, Microscopy: >100 µM
In vitro
  CC50: > 100 µM

## Cc1cc(CNC(=O)c2cc(Cl)cc(C(F)(F)F)c2)cs1 [Compound 48, 3-Chloro-N-((5-methylthiophen-3-yl)methyl)-5-(trifluoromethyl)benzamide]
[1]; [5]
  EC50: 0.34 ± 0.18 µM
[1]; [6]
  EC50: 0.46 ± 0.14 µM
[2]; [7]
  EC50: 0.15 ± 0.12 µM
[2]; [8]
  EC50: 1.9 ± 1.1 µM
MDCK cells
  Cytotoxicity MCC, Microscopy: >100 µM
In vitro
  CC50: > 100 µM

## Cc1sccc1CNC(=O)c1cc(Cl)cc(C(F)(F)F)c1 [Compound 49, 3-Chloro-N-((2-methylthiophen-3-yl)methyl)-5-(trifluoromethyl)benzamide]
[1]; [5]
  EC50: 0.14 ± 0.04 µM
[1]; [6]
  EC50: 0.14 ± 0.05 µM
[2]; [7]
  EC50: 0.37 ± 0.16 µM
[2]; [8]
  EC50: 0.48 ± 0.07 µM
MDCK cells
  Cytotoxicity MCC, Microscopy: 78 ± 22 µM
In vitro
  CC50: > 100 µM

## O=C(NCc1ccsc1)c1cc(Cl)cc(C(F)(F)F)c1 [Compound 50, 3-Chloro-N-(Thiophen-3-ylmethyl)-5-(trifluoromethyl)benzamide]
[1]; [5]
  EC50: 2 ± 1 µM
[1]; [6]
  EC50: 1 ± 0.6 µM
[2]
  ΔΔG (exp), change VF-57a → labelled compound: 0.8 kcal/mol
  ΔΔG (exp), change labelled compound → VF-57a: –0.8 kcal/mol
[2]; [7]
  EC50: 1.1 ± 0.5 µM
[2]; [8]
  EC50: 2.1 µM
MDCK cells
  Cytotoxicity MCC, Microscopy: 100 ± 0 µM
In vitro
  CC50: 70 ± 2 µM

## Cc1cc(CNC(=O)c2cc(F)c(F)c(C(F)(F)F)c2)cs1 [Compound 51, 3,4-Difluoro-N-((5-methylthiophen-3-yl)methyl)-5-(trifluoromethyl)benzamide]
[1]; [5]
  EC50: 2.9 ± 1.1 µM
[1]; [6]
  EC50: 3.5 ± 1.2 µM
[2]; [7]
  EC50: 5.3 ± 0.8 µM
[2]; [8]
  EC50: > 100 µM
MDCK cells
  Cytotoxicity MCC, Microscopy: 33 ± 0 µM
In vitro
  CC50: 24 ± 2 µM

## O=C(NCc1ccoc1)c1cc(F)cc(C(F)(F)F)c1 [Compound 56, 3-Fluoro-N-(Furan-3-ylmethyl)-5-(trifluoromethyl)benzamide]
[1]; [3]
  EC50: > 100 µM
[2]; [4]
  EC50: > 100 µM

## O=C(NCc1cncs1)c1cc(F)cc(C(F)(F)F)c1 [Compound 57, 3-Fluoro-N-(Thiazol-5-ylmethyl)-5-(trifluoromethyl)benzamide]
[1]; [3]
  EC50: > 100 µM
[2]; [4]
  EC50: > 100 µM

## O=C(NCc1ccon1)c1cc(F)cc(C(F)(F)F)c1 [Compound 58, 3-Fluoro-N-(Isoxazol-3-ylmethyl)-5-(trifluoromethyl)benzamide]
[1]; [3]
  EC50: > 100 µM
[2]; [4]
  EC50: > 100 µM

## O=C(NCc1ccncc1)c1cc(F)cc(C(F)(F)F)c1 [Compound 59, 3-Fluoro-N-(Pyridin-4-ylmethyl)-5-(trifluoromethyl)benzamide]
[1]; [3]
  EC50: > 100 µM
[2]; [4]
  EC50: > 100 µM

## O=C(NCc1cc[nH]n1)c1cc(F)cc(C(F)(F)F)c1 [Compound 60, N-((1H-Pyrazol-3-Yl)methyl)-3-fluoro-5-(trifluoromethyl)benzamide]
[1]; [3]
  EC50: > 100 µM
[2]; [4]
  EC50: > 100 µM

## O=C(NCc1cocn1)c1cc(F)cc(C(F)(F)F)c1 [Compound 61, 3-Fluoro-N-(Oxazol-4-ylmethyl)-5-(trifluoromethyl)benzamide]
[1]; [3]
  EC50: > 100 µM
[2]; [4]
  EC50: > 100 µM

## O=C(NCc1cscn1)c1cc(F)cc(C(F)(F)F)c1 [Compound 62, 3-Fluoro-N-(Thiazol-4-ylmethyl)-5-(trifluoromethyl)benzamide]
[1]; [3]
  EC50: > 100 µM
[2]; [4]
  EC50: > 100 µM
